Data from ChEMBL document CHEMBL3992489, “Potentiation of the Fosmidomycin analogue FR 900098 with substituted 2-oxazolines against Francisella novicida” (2016).
Activity calls are given as the source filed them. The calls are words filed in the database; no cut-off is given here.

What was measured:
[1] = Antibacterial activity against Francisella novicida U112 after 48 hrs; assay type: functional, Francisella tularensis subsp. novicida U112; details: Francisella tularensis
[2] = Potentiation of FR900098-induced antibacterial activity against Francisella novicida U112 assessed as FR900098 MIC after 48 hrs; assay type: functional, Francisella tularensis subsp. novicida U112; details: Francisella tularensis
[3] = Potentiation of FR900098-induced antibacterial activity against Francisella novicida U112 assessed as fold reduction in FR900098 MIC after 48 hrs; assay type: functional, Francisella tularensis subsp. novicida U112
[4] = Potentiation of FR900098-induced antibacterial activity against Francisella philomiragia ATCC 25015 assessed as fold reduction in FR900098 MIC after 48 hrs; assay type: functional, Francisella philomiragia subsp. philomiragia ATCC 25015
[5] = Potentiation of FR900098-induced antibacterial activity against Francisella novicida U112 assessed as fold reduction in FR900098 MIC at 40 uM after 48 hrs; assay type: functional, Francisella tularensis subsp. novicida U112
[6] = Potentiation of FR900098-induced antibacterial activity against Francisella novicida U112 assessed as FR900098 MIC at 40 uM after 48 hrs; assay type: functional, Francisella tularensis subsp. novicida U112; details: Francisella tularensis
[7] = tested on: Francisella tularensis subsp. novicida U112; assay: Bactericidal activity against Francisella novicida U112 at 25% antibacterial MIC up to 24 hrs by time kill curve assay; assay type: functional
[8] = tested on: Francisella tularensis subsp. novicida U112; assay: Potentiation of FR900098-induced antibacterial activity against Francisella novicida U112 assessed as reduction in FR900098 MIC at <30 uM after 48 hrs; assay type: functional
[9] = Antibacterial activity against Francisella philomiragia ATCC 25015 after 48 hrs; assay type: functional, Francisella philomiragia subsp. philomiragia ATCC 25015; details: ATCC 25015, 48 h

Compound	MIC [1]	MIC [2]	also measured
CCCCCCc1ccc(C2SCCS2)cc1	> 200 µM	16 µg/mL	
CCCCCCCCc1ccc(C2=NCCO2)cc1	200 µM	2 µg/mL	fold change (FC) [3]: 8
Fc1cc(C2=NCCO2)ccc1C(F)(F)F	> 200 µM	16 µg/mL	
CCCCCCc1ccc(-c2ncc[nH]2)cc1	12.5 µM	32 µg/mL	
CCc1ccc(C2=NCCO2)cc1	> 200 µM	16 µg/mL	
C(=C\c1ccccc1)/C1=NCCO1	> 200 µM	32 µg/mL	
CCCCCCCc1ccc(C2=NCCO2)cc1	100 µM	2 µg/mL	fold change (FC) [3]: 8
CCCCCCc1ccc(C2=NCCCO2)cc1	50 µM	4 µg/mL	fold change (FC) [3]: 4
Brc1cccc(C2=NCCO2)c1	> 200 µM	16 µg/mL	
CCCCCCc1ccc(C2=NCCO2)cc1	> 200 µM		fold change (FC) [4]: 32; fold change (FC) [5]: 1000; MIC [6]: 0.0156 µg/mL; Activity [7]: inactive; Activity [8]: inactive
CCCCCCc1ccc(-c2ccncc2)cc1	100 µM	0.5 µg/mL	
c1ccc(/N=N/c2ccc(C3=NCCO3)cc2)cc1	> 200 µM	16 µg/mL	
CCCCCCCCCc1ccc(C2=NCCO2)cc1	> 200 µM	16 µg/mL	fold change (FC) [3]: 8
CCCCCc1ccc(C2=NCCS2)cc1	200 µM	1 µg/mL	fold change (FC) [3]: 16
CCCCCCc1ccc(-c2cncnc2)cc1	100 µM	4 µg/mL	fold change (FC) [3]: 32
CCCCCCc1ccc(-c2c[nH]c(N)n2)cc1	12.5 µM	32 µg/mL	
c1ccc(C2=NCCO2)cc1	> 200 µM	16 µg/mL	

Compound	MIC [1]	MIC [2]	also measured
CCCCCCCCCCc1ccc(C2=NCCO2)cc1	> 200 µM	16 µg/mL	fold change (FC) [3]: 8
CCCCCCc1ccc(C(=O)OC)cc1	200 µM	8 µg/mL	
CCCCCc1ccc(C2=NCCO2)cc1	200 µM	4 µg/mL	MIC [9]: 200 µM; fold change (FC) [4]: 4
CN(C)c1ccc(C2=NCCO2)cc1	> 200 µM	16 µg/mL	
CCCCCCc1ccc(-c2ncco2)cc1	> 200 µM	16 µg/mL	
CCCCCCc1ccc(C2=NCCS2)cc1	> 200 µM	2 µg/mL	fold change (FC) [3]: 8
c1ccc2cc(C3=NCCO3)ccc2c1	100 µM	16 µg/mL	
Fc1cc(C2=NCCO2)cc(F)c1F	> 200 µM	16 µg/mL	
CCCCCc1ccc(-c2ncco2)cc1	200 µM	16 µg/mL	
CCCCCCc1ccc(C2=NCCN2)cc1	100 µM	16 µg/mL	
CCCc1ccc(C2=NCCO2)cc1	> 200 µM	16 µg/mL	
Cc1ccc(C2=NCCO2)cc1	> 200 µM	16 µg/mL	
CC(=O)N(O)CCCP(=O)(O)O [FR-900098]	16 µg/mL		MIC [9]: 1020 µg/mL
CCCCCCc1ccc(C2OCCO2)cc1	> 200 µM	16 µg/mL	
c1cc(C2=NCCO2)ccn1	> 200 µM	16 µg/mL	
CCCCc1ccc(C2=NCCO2)cc1	> 200 µM	4 µg/mL	fold change (FC) [3]: 4
